Laboratory results taken from US20240300980A1, “HETEROCYCLIC COMPOUNDS AS KRAS INHIBITOR, AND PREPARATION THEREFOR AND USE THEREOF IN TREATMENT” (SHANGHAI KECHOW PHARMA, INC., priority 2021, published 2024).
Read-outs that look alike come from different tables or passages of the source.

System: AGS cells (KRAS^G12D)
Assay: Detection of cell proliferation in vitro by MTT/MTS method (cell activity experiment)
Type: cell-based
Details: AGS cells, MTT/MTS, 3 days of drug treatment, read-out: AGS IC50
In short: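 KRAS G12D AGS cells seeded at 1000 per well, compound added 24 h later, 0.5% final DMSO. Viability read after 3 days of treatment by MTT (solubilised in DMSO) or MTS, 4 h, absorbance 490 nm. IC50 from dose–response curves versus DMSO control.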

IC50 [nM] | Compound | IC50 (Homo sapiens, AGS, 72 h) [nM]
> 2500 | C#Cc1c(F)ccc2cc(O)cc(-c3ccc4c(N5C[C@H]6CC[C@@H](C5)[C@@H]6SC)nc(OC[C@@]56CCCN5C[C@H](F)C6)nc4c3F)c12 [Example 129, 5-ethynyl-6-fluoro-4-(8-fluoro-2-(((2R,7aS)-2-fluorotetrahydro-1H-pyrrolizin-7a(5H)-yl)methoxy)-4-((1R, 5S,8R)-8-(methylthio)-3-azabicyclo[3.2.1]octan-3-yl)quinazolin-7-yl)naphthalen-2-ol] | –
> 2500 | C#Cc1c(F)ccc2cc(O)cc(-c3ccc4c(N5C[C@H]6CC[C@@H](C5)[C@@H]6O)nc(OC[C@@]56CCCN5C[C@H](F)C6)nc4c3F)c12 [Example 118, (1R,5S,8R)-3-(7-(8-ethynyl-7-fluoro-3-hydroxynaphthalen-1-yl)-8-fluoro-2-(((2R,7aS)-2-fluorotetrahydro-1H-pyrrolizin-7a(5H)-yl)methoxy)quinazolin-4-yl)-3-azabicyclo [3.2.1]octan-8-ol] | –

More lines, now with the values behind:

Compound | IC50 [nM] | IC50 (Homo sapiens, AGS, 72 h) [nM]
C#Cc1cccc2cc(O)cc(-c3ncc4c(N5C[C@H]6CC[C@@H](C5)S6)nc(OC[C@@]56CCCN5C[C@H](F)C6)nc4c3F)c12 [Example 20, 4-(4-((1R,5S)-8-thia-3-azabicyclo [3.2.1]octan-3-yl)-8-fluoro-2-(((2R, 7aS)-2-fluorotetrahydro-1H-pyrrolizin-7a(5H)-yl)methoxy)pyrido [4,3-d]pyrimidin-7-yl)-5-ethynylnaphthalen-2-ol] | – | 271
CCC1CCCc2cc(O)cc(-c3ncc4c(N5C[C@H]6CC[C@@H](C5)N6)nc(OC[C@@]56CCCN5C[C@H](F)C6)nc4c3F)c21 (stereo partly drawn) [Example 227, 4-(4-((1R,5S)-3,8-diazabicyclo[3.2.1]octan-3-yl)-8-fluoro-2-(((2R,7aS)-2-fluorotetrahydro-1H-pyrrolizin-7a(5H)-yl)methoxy)pyrido[4,3-d]pyrimidin-7-yl)-5-ethyl-5,6,7,8-tetrahydronaphthalen-2-ol] | – | 5
Oc1cc2c(c(-c3ncc4c(N5C[C@H]6CC[C@@H](C5)N6)nc(OC[C@@]56CCCN5C[C@H](F)C6)nc4c3F)c1)C1CC1CC2 (stereo partly drawn) [Example 246, 7-(4-((1R,5S)-3,8-diazabicyclo[3.2.1]octan-3-yl)-8-fluoro-2-(((2R,7aS)-2-fluorotetrahydro-1H-pyrrolizin-7a(5H)-yl)methoxy)pyrido[4,3-d]pyrimidin-7-yl)-1a,2,3,7b-tetrahydro-1H-cyclopropa[a]naphthalen-5-ol] | – | 109
C#Cc1c(F)ccc2cc(O)cc(-c3ncc4c(N5CC6CCC(C5)C6C#N)nc(OC[C@@]56CCCN5C[C@H](F)C6)nc4c3F)c12 (stereo partly drawn) [Example 62, (1R,5S,8S)-3-(7-(8-ethynyl-7-fluoro-3-hydroxynaphthalen-1-yl)-8-fluoro-2-(((2R, 7aS)-2-fluorotetrahydro-1H-pyrrolizin-7a(5H)-yl)methoxy)pyrido[4,3-d]pyrimidin-4-yl)-3-azabicyclo[3.2.1] octane-8-carbonitrile] | – | > 2500
C#Cc1c(F)ccc2cc(O)cc(-c3ccc4c(N5CCC6(CCCN6)CC5)nc(OC[C@@]56CCCN5C[C@H](F)C6)nc4c3F)c12 [Example 90, 5-ethynyl-6-fluoro-4-(8-fluoro-2-(((2R,7aS)-2-fluorotetrahydro-1H-pyrrolizin-7a(5H)-yl)methoxy)-4-(1,8-diazaspiro[4,5]decan-8-yl)quinazolin-7-yl)naphthalen-2-ol] | – | 8920
C#Cc1c(F)ccc2cc(O)cc(-c3ncc4c(N5CCC(NS(C)(=O)=O)C5)nc(OC[C@@]56CCCN5C[C@H](F)C6)nc4c3F)c12 (stereo partly drawn) [Example 59, N-(1-(7-(8-ethynyl-7-fluoro-3-hydroxynaphthalen-1-yl)-8-fluoro-2-(((2R, 7aS)-2-fluorotetrahydro-1H-pyrrolizin-7a(5H)-yl)methoxy)pyrido[4,3-d]pyrimidin-4-yl)pyrrolidin-3-yl) methanesulfonamide] | – | > 2500
C#Cc1c(F)ccc2cc(O)cc(-c3ncc4c(N5CCC6(CCCN6)CC5)nc(OC[C@@]56CCCN5C[C@H](F)C6)nc4c3F)c12 [Example 47, 5-ethynyl-6-fluoro-4-(8-fluoro-2-(((2R,7aS)-2-fluorotetrahydro-1H-pyrrolizin-7a(5H)-yl)methoxy)-4-(1,8-diazaspiro[4.5]decan-8-yl)pyrido[4,3-d]pyrimidin-7-yl) naphthalen-2-ol] | – | 4540
CCc1c(F)ccc2cc(O)cc(-c3ccc4c(N5C[C@H]6CC[C@@H](C5)N6)nc(OC[C@@]56CCCN5C[C@H](F)C6)nc4c3)c12 [Example 149, 4-(4-((1R,5S)-3,8-diazabicyclo[3.2.1]octan-3-yl)-2-(((2R, 7aS)-2-fluorotetrahydro-1H-pyrrolizin-7a(5H)-yl)methoxy)quinazolin-7-yl)-5-ethyl-6-fluoronaphthalen-2-ol] | – | 320
C#Cc1c(F)ccc2cc(O)cc(-c3ccc4c(C5C[C@H]6CC[C@@H](C5)N6)nc(OC[C@@]56CCCN5C[C@H](F)C6)nc4c3F)c12 (stereo partly drawn) [Example 137, 4-(4-((1R,5S)-8-azabicyclo[3.2.1]octan-3-yl)-8-fluoro-2-(((2R,7aS)-2-fluorotetrahydro-1H-pyrrolizin-7a(5H)-yl)methoxy)quinazolin-7-yl)-5-ethynyl-6-fluoronaphthalen-2-ol] | – | > 2500
CCC1CCc2cc(O)cc(-c3ncc4c(NCC5(N(C)C)CCC5)nc(OC[C@@]56CCCN5C[C@H](F)C6)nc4c3F)c21 (stereo partly drawn) [Example 423, 7-(4-(((1-(dimethylamino)cyclobutyl)methyl)amino)-8-fluoro-2-(((2R,7aS)-2-fluorotetrahydro-1H-pyrrolizin-7a(5H)-yl)methoxy)pyrido[4,3-d]pyrimidin-7-yl)-1-ethyl-2,3-dihydro-1H-inden-5-ol] | – | 55
O=C(CO)N1CCC(c2nc(OC[C@@]34CCCN3C[C@H](F)C4)nc3c(F)c(-c4cc(O)cc5ccc(F)c(F)c45)ncc23)C1 (stereo partly drawn) [Example 85, 1-(3-(7-(7,8-difluoro-3-hydroxynaphthalen-1-yl)-8-fluoro-2-(((2R,7aS)-2-fluorotetrahydro-1H-pyrrolizin-7a(5H)-yl)methoxy)pyrido[4,3-d]pyrimidin-4-yl)pyrrolidin-1-yl)-2-hydroxyethan-1-one] | – | > 1000
CCC1CCc2cc(O)cc(-c3ccc4c(N5C[C@H]6CC[C@@H](C5)N6)nc(OC[C@@]56CCCN5C[C@H](F)C6)nc4c3F)c21 (stereo partly drawn) [Example 283, 7-(4-((1R,5S)-3,8-diazabicyclo[3.2.1]octan-3-yl)-8-fluoro-2-(((2R,7aS)-2-fluorotetrahydro-1H-pyrrolizin-7a(5H)-yl)methoxy)quinazolin-7-yl)-1-ethyl-2,3-dihydro-1H-inden-5-ol] | – | 14
[O-][S+]1C2CCC1CN(c1nc(OC[C@@]34CCCN3C[C@H](F)C4)nc3c(F)c(-c4cc(O)cc5ccc(F)c(F)c45)ncc13)C2 (stereo partly drawn) [Example 28, (1R,5S,8R)-3-(7-(7,8-difluoro-3-hydroxynaphthalen-1-yl)-8-fluoro-2-(((2R, 7aS)-2-fluorotetrahydro-1H-pyrrolizin-7a(5H)-yl)methoxy)pyrido[4,3-d]pyrimidin-4-yl)-8-thia-3-azabicyclo [3.2.1]octane 8-oxide] | – | > 1000
C#Cc1c(F)ccc2cc(O)cc(-c3ccc4c(N5CCC(NS(C)(=O)=O)C5)nc(OC[C@@]56CCCN5C[C@H](F)C6)nc4c3F)c12 (stereo partly drawn) [Example 117, N-(1-(7-(8-ethynyl-7-fluoro-3-hydroxynaphthalen-1-yl)-8-fluoro-2-(((2R, 7aS)-2-fluorotetrahydro-1H-pyrrolizin-7a(5H)-yl)methoxy)quinazolin-4-yl)pyrrolidin-3-yl)methanesulfonamide] | – | > 2500
CCc1c(F)ccc2cc(O)cc(-c3ncc4c(C5C[C@H]6CC[C@@H](C5)N6)nc(OC[C@@]56CCCN5C[C@H](F)C6)nc4c3F)c12 (stereo partly drawn) [Example 80, 4-(4-((1R,5S)-8-azabicyclo[3.2.1]octan-3-yl)-8-fluoro-2-(((2R,7aS)-2-fluorotetrahydro-1H-pyrrolizin-7a(5H)-yl)methoxy)pyrido[4,3-d]pyrimidin-7-yl)-5-ethyl-6-fluoronaphthalen-2-ol] | – | > 2500
CC(C)C1CCc2cc(O)cc(-c3ncc4c(N5C[C@H]6CC[C@@H](C5)N6)nc(OC[C@@]56CCCN5C[C@H](F)C6)nc4c3F)c21 (stereo partly drawn) [Example 268, 7-(4-((1R,5S)-3,8-diazabicyclo[3.2.1]octan-3-yl)-8-fluoro-2-(((2R,7aS)-2-fluorotetrahydro-1H-pyrrolizin-7a(5H)-yl)methoxy)pyrido[4,3-d]pyrimidin-7-yl)-1-isopropyl-2,3-dihydro-1H-inden-5-ol] | – | 4000
Oc1cc2c(c(-c3ccc4c(N5C[C@H]6CC[C@@H](C5)N6)nc(OC[C@@]56CCCN5C[C@H](F)C6)nc4c3F)c1)C=CC2 [Example 306, 4-(4-((1R,5S)-3,8-diazabicyclo[3.2.1]octan-3-yl)-8-fluoro-2-(((2R,7aS)-2-fluorotetrahydro-1H-pyrrolizin-7a(5H)-yl)methoxy)quinazolin-7-yl)-1H-inden-6-ol] | – | 366
CCc1c(F)ccc2cc(O)cc(-c3ncc4c(N5C[C@H]6CC[C@@H](C5)N6)c(C#N)c(OC[C@@]56CCCN5C[C@H](F)C6)nc4c3F)c12 [Example 192, 4-((1R,5S)-3,8-diazabicyclo[3.2.1]octan-3-yl)-7-(8-ethyl-7-fluoro-3-hydroxynaphthalen-1-yl)-8-fluoro-2-(((2R,7aS)-2-fluorotetrahydro-1H-pyrrolizin-7a(5H)-yl)methoxy)-1,6-naphthyridine-3-carbonitrile] | – | 121
CC1CCCc2cc(O)cc(-c3c(Cl)cc4c(N5C[C@H]6CC[C@@H](C5)N6)nc(OC[C@@]56CCCN5C[C@H](F)C6)nc4c3F)c21 (stereo partly drawn) [Example 301, 4-(4-((1R,5S)-3,8-diazabicyclo[3.2.1]octan-3-yl)-6-chloro-8-fluoro-2-(((2R,7aS)-2-fluorotetrahydro-1H-pyrrolizin-7a(5H)-yl)methoxy)quinazolin-7-yl)-5-methyl-5,6,7,8-tetrahydronaphthalen-2-ol] | – | 28
